Test results from patent publication US8426369B2, “Prevention and treatment of colon cancer” (Rutgers, The State University of New Jersey, priority 2006, dated 2013).

Key:
HT-29 cells = experiment: [3H]Thymidine incorporation cell proliferation assay in HT-29 cells; type: cell-based, human; conditions: 30 μM, three days
Method: The stilbenes illustrated in FIG. 4 were also used to investigate their ability to inhibit cell proliferation in HT-29 cell line. In this experiment, HT-29 cells (20,000 cells/well in 24-well plate) were treated with the respective stilbenes (each used either at 30 μM or 3 μM) in 10% FBS/DMEM for three days.
(§1) Human colon carcinoma cell lines HT-29 was obtained from the American Type Culture Collection (Manassas, Va.). The cells were maintained in Dulbecco's modification of Eagle's medium (DMEM) supplemented with 10% FBS and 1% penicillin/streptomycin at 37° C. and 5% CO2. The cytokine mixture, consisting of 10 ng/ml of TNF-α, IFN-γ and LPS, was used to induce iNOS and COX-2, unless otherwise mentioned. The cells were treated with the test compound either alone or in combination with cytokines for different time intervals and harvested for protein or RNA.
HT-29 cells were plated at a density of 20,000 cells/well in a 24 well plate and treated with varying concentrations of pterostilbene for a period of 1, 2 or 3 days at 37° C. Before harvest, the cells were incubated with 1 μCi [^3H]thymidine for 4 h at 37° C. and were washed with phosphate buffered saline. The cells were precipitated with cold 10% trichloroacetic acid for 10 min and solubilized with 0.5 ml solubilization buffer (0.2 M NaOH, 40 μg/ml salmon sperm DNA) for 2 h at room temperature. The lysate was transferred to 5 ml Ecolume and the [3H]thymidine incorporated into the DNA of HT-29 cells was determined using a scintillation spectrometer (Beckman Coulter, Fullerton, Calif.).

iNOS = experiment: Cytokine-induced iNOS protein expression in HT-29 cells (Western blot); type: cell-based, human; conditions: stilbene analogs each at 10 μM, 15 hours, HT-29, Western blot
Method: HT-29 human colon adenocarcinoma cells were grown in 10% FBC/DMEM. Cells (about 600,000 cells/well) were plated in 6-well plate and treated with stilbene analogs shown in FIG. 4 (each at 10 μM) for 15 hours together with cytokine mixture comprising TNF-a, IFN0g, and LPS (each at 10 ng/ml). Cell lysates were prepared and subjected to Western Blot analysis.
as §1
The cell culture conditions and the reagents used in this example were described in Example 32. Whole cell extracts were collected after the various treatments and analyzed by western blotting. The protein samples were separated on 4-15% SDS-PAGE gels (Biorad, Hercules, Calif.) followed by transfer to a polyvinylidene fluoride membrane. The membranes were blocked with 5% milk in Tris buffer for 1 h and then incubated with the appropriate primary antibody solutions overnight at 4° C. The membranes were washed with Tris buffer, and incubated with horseradish peroxidase conjugated secondary antibody solutions for 1 h at room temperature.
The protein bands were visualized using a chemiluminescence based kit from Amersham Biosciences (Buckinghamshire, UK). The primary antibodies against iNOS, COX-2, IκBα, cyclin D1, c-myc (Santa Cruz Bio-technology, Santa Cruz, Calif.), phospho-STAT3, phospho-Erk1/2, phospho-JNK1/2, phospho-p38, phospho-Akt, phospho-ATF2, phospho-Elk1, PARP (Cell Signaling Technology Inc., Beverly, Mass.) and actin (Sigma, St. Louis, Mo.) and secondary antibodies (Santa Cruz Biotechnology, Santa Cruz, Calif.) were used for probing the abundance of the target protein in the samples.

[1] = tested on: AOM-induced rat colon carcinogenesis; conditions: 100 ppm; cited from earlier work
AOM-induced colonic ACF = conditions: F344 rats; L-N6-(1-iminoethyl)lysine tetrazoleamide at 100 ppm; cited from earlier work
[2] = tested on: colorectal aberrant crypt foci (ACF); conditions: rats; cited from earlier work

| Compound | proliferation of HT-29 cells (HT-29 cells) | AOM-induced colonic ACF (AOM-induced colonic ACF) | further results |
| --- | --- | --- | --- |
| COc1ccc(/C=C/c2cc(OC)cc(OC)c2)cc1 [ARS-8, (E)-1,3-dimethoxy-5-(4-methoxystyryl)benzene] | inhibited proliferation |  |  |
| COc1ccc(/C=C\c2cc(OC)cc(OC)c2)cc1 [ARS-9, (Z)-1,3-dimethoxy-5-(4-methoxystyryl)benzene] | inhibited proliferation |  | induction of iNOS protein expression by cytokine mixture (iNOS): inhibited |
| C[C@H]1CC(=N)N[C@@H]2[C@H](Cl)[C@@H]21.Cl [ONO-1714, [1S,5S,6R,7R]-7-chloro-3-imino-5-methyl-2 azabicyclo[4.1.0]heptane hydrochloride] |  |  | AOM-induced rat colon carcinogenesis [1]: inhibitory effect |
| N=C(N)SCCc1ccc(CCSC(=N)N)cc1 [PBIT, S,S′-1,4-phenylene-bis(1,2-ethanediyl)bis-isothiourea] |  | inhibitory effects |  |
| Oc1ccc(C=Cc2cc(O)cc(O)c2)cc1 [Resveratrol] |  |  | growth of colorectal aberrant crypt foci (ACF) [2]: reduce the growth |
| L-N^6-(1-iminoethyl)lysine tetrazoleamide |  | significantly suppress |  |
